According to publication PMC11845761, “Intestinal human carboxylesterase 2 (CES2) expression rescues drug metabolism and most metabolic syndrome phenotypes in global Ces2 cluster knockout mice” (Acta Pharmacologica Sinica, 2024):
Marks after values point to notes of the source that are not given here.

Tests used:
[1] = Tissue concentrations of vinorelbine and deacetylvinorelbine 4 h after i.v. vinorelbine in CES2-modified mice; assay type: in vivo, mouse; details: i.v. vinorelbine 10 mg/kg
Procedure: (§1) For capecitabine 2-h experiments, 6–7 female mice received oral capecitabine (500 mg/kg, 10 μL/g), and tail vein blood samples were collected at 0.125, 0.25, 0.5 and 1 h after drug administration. For the vinorelbine 4-h experiment, 6-7 male mice received vinorelbine intravenously (10 mg/kg, 5 μL/g) or orally (10 mg/kg, 10 μL/g) using a blunt-ended needle. Tail vein blood samples were collected at 0.125, 0.25, 0.5, 1 and 2 h after drug administration. […] At the last time point in each experiment (2 or 4 h), mice were anesthetized with 5% isoflurane and blood was collected by cardiac puncture. […] Plasma was isolated from the blood by centrifugation at 9000 × g for 6 min at 4 °C, and the plasma fraction was collected and stored at −30 °C until analysis.
(§2) Concentrations of capecitabine (and its metabolites) and vinorelbine (and its metabolite) in mouse plasma samples and organ homogenates were determined using two independent validated high-performance liquid chromatography-tandem mass spectrometry assays.
(§3) Pharmacokinetic parameters were calculated by non-compartmental methods using the PK solver software. […] Differences were considered statistically significant when P < 0.05. All data are presented as mean ± SD.

[2] = Plasma pharmacokinetics of vinorelbine and deacetylvinorelbine after i.v. vinorelbine in CES2-modified mice; details: i.v. vinorelbine 10 mg/kg; for AUC0-4h / AUC0-4h ratio (× 10^−3) (deacetylvinorelbine/vinorelbine) / Cmax / Tmax: plasma
Procedure: In order to minimize variation among individuals, mice were fasted for 3 h before drug was administered orally or intravenously. […] For the vinorelbine 4-h experiment, 6-7 male mice received vinorelbine intravenously (10 mg/kg, 5 μL/g) or orally (10 mg/kg, 10 μL/g) using a blunt-ended needle. […] Time points of termination were chosen to allow both reasonable assessment of the plasma exposure of the compound and its main metabolites, and adequate measurement of tissue concentrations. In order to minimize the generation and use of mice, and as no pronounced sex differences were expected, female mice were used for the capecitabine studies and male mice for the vinorelbine studies. Tail vein blood sample collection (~50 μL) was performed using microvettes containing dipotassium-EDTA. All blood samples were rapidly placed on ice to limit any ongoing hydrolysis. At the last time point in each experiment (2 or 4 h), mice were anesthetized with 5% isoflurane and blood was collected by cardiac puncture. Cardiac puncture blood samples (600–800 μL) were collected in Eppendorf tubes containing heparin as an anticoagulant. The mice were then sacrificed by cervical dislocation and brain, liver, kidney, lung, small intestine and testis were rapidly removed. Plasma was isolated from the blood by centrifugation at 9000 × g for 6 min at 4 °C, and the plasma fraction was collected and stored at −30 °C until analysis. Organs were homogenized with 4% (w/v) bovine serum albumin and stored at −30 °C until analysis. Relative metabolite-to-parental drug ratio after drug administration was calculated by determining metabolite tissue concentration relative to corresponding parental drug concentration at the last time point.
as §2
Pharmacokinetic parameters were calculated by non-compartmental methods using the PK solver software. The area under the plasma concentration-time curve (AUC) was calculated using the trapezoidal rule, without extrapolating to infinity. The peak plasma concentration (Cmax) and the time of maximum plasma concentration (Tmax) were estimated from the original (individual mouse) data. One-way analysis of variance (ANOVA) was used when multiple groups were compared and the Tukey’s test post hoc correction was used to accommodate multiple testing. The two-sided unpaired Student’s t-test was used when treatments or differences between two specific groups were compared. Kruskal-Wallis rank test was used for semi-quantitative assessment for (H&E)-staining of white adipose tissue and Oil Red O-staining of liver. All statistical analyses were performed using the software GraphPad Prism 8 (GraphPad Software Inc., La Jolla, CA, USA). All the linear data were log-transformed before statistical tests were applied. Differences were considered statistically significant when P < 0.05. All data are presented as mean ± SD.

[3] = Plasma pharmacokinetics of vinorelbine and deacetylvinorelbine after oral vinorelbine in CES2-modified mice; assay type: in vivo, mouse; details: oral vinorelbine 10 mg/kg; for AUC0-4h / AUC0-4h ratio (× 10^−3) (deacetylvinorelbine/vinorelbine) / Cmax / Tmax: plasma
Procedure: as §1, §2, §3

[4] = Tissue concentrations of vinorelbine and deacetylvinorelbine 4 h after oral vinorelbine in CES2-modified mice; assay type: in vivo, mouse; details: oral vinorelbine 10 mg/kg
Procedure: as §1, §2, §3

[5] = design: method as in PMID 11822766; details: 24 patients; oral vinorelbine 80 mg/m^2; cited from earlier work

## CCC1=C[C@@H]2CN(C1)Cc1c([nH]c3ccccc13)[C@@](C(=O)OC)(c1cc3c(cc1OC)N(C)[C@H]1[C@@](O)(C(=O)OC)[C@H](O)[C@]4(CC)C=CCN5CC[C@]31[C@@H]54)C2 [Deacetylvinorelbine, 4’-O-deacetylvinorelbine]
[1]; male Ces2^–/– mice
  CSI (small intestine tissue concentration): 87 ± 15 ng/g
  CSIC (small intestine contents concentration): 291 ± 180 ng/g
  Ccolon (colon concentration): 58 ± 45 ng/g
  Cliver (liver concentration): 487 ± 127 ng/g
  Colon Ratio (x 10^-3) (deacetylvinorelbine /vinorelbine): 9.4 ± 3.8 x 10^-3
  Liver Ratio (x 10^-3) (deacetylvinorelbine /vinorelbine): 21 ± 1.9 x 10^-3
  Small intestine Ratio (x 10^-3) (deacetylvinorelbine /vinorelbine): 15 ± 1.2 x 10^-3
  Small intestine contents Ratio (x 10^-3) (deacetylvinorelbine /vinorelbine): 7.4 ± 1.0 x 10^-3
  liver deacetylvinorelbine-to-vinorelbine ratio: 0.021 ± 0.002
  small intestine conversion ratio (deacetylvinorelbine-to-vinorelbine): 0.015 ± 0.001
[1]; male Ces2^–/–A mice
  CSI (small intestine tissue concentration): 79 ± 13 ng/g
  CSIC (small intestine contents concentration): 400 ± 315 ng/g
  Ccolon (colon concentration): 42 ± 43 ng/g
  Cliver (liver concentration): 584 ± 157 ng/g
  Colon Ratio (x 10^-3) (deacetylvinorelbine /vinorelbine): 7.0 ± 3.7 x 10^-3
  Liver Ratio (x 10^-3) (deacetylvinorelbine /vinorelbine): 25± 7.0 x 10^-3
  Small intestine Ratio (x 10^-3) (deacetylvinorelbine /vinorelbine): 14 ± 1.0 x 10^-3
  Small intestine contents Ratio (x 10^-3) (deacetylvinorelbine /vinorelbine): 8.1 ± 1.1 x 10^-3
  liver deacetylvinorelbine-to-vinorelbine ratio: 0.025 ± 0.0070
  small intestine conversion ratio (deacetylvinorelbine-to-vinorelbine): 0.014 ± 0.001
[1]; male Ces2^–/–V mice
  CSI (small intestine tissue concentration): 134 ± 47***^ ng/g
  CSIC (small intestine contents concentration): 511 ± 322 ng/g
  Ccolon (colon concentration): 120 ± 45***^ ng/g
  Cliver (liver concentration): 513 ± 61 ng/g
  Colon Ratio (x 10^-3) (deacetylvinorelbine /vinorelbine): 17 ± 4.7***^^ x 10^-3
  Liver Ratio (x 10^-3) (deacetylvinorelbine /vinorelbine): 22 ± 6.6 x 10^-3
  Small intestine Ratio (x 10^-3) (deacetylvinorelbine /vinorelbine): 17 ± 2.2***^^ x 10^-3
  Small intestine contents Ratio (x 10^-3) (deacetylvinorelbine /vinorelbine): 10 ± 1.0 x 10^-3
  liver deacetylvinorelbine-to-vinorelbine ratio: 0.022 ± 0.007
  small intestine conversion ratio (deacetylvinorelbine-to-vinorelbine): 0.017 ± 0.002
[1]; male wild-type mice
  CSI (small intestine tissue concentration): 2214 ± 605 ng/g
  CSIC (small intestine contents concentration): 27594 ± 13421 ng/g
  Ccolon (colon concentration): 780 ± 199 ng/g
  Cliver (liver concentration): 26773 ± 10517 ng/g
  Colon Ratio (x 10^-3) (deacetylvinorelbine /vinorelbine): 340 ± 70 x 10^-3
  Liver Ratio (x 10^-3) (deacetylvinorelbine /vinorelbine): 2500 ± 1300 x 10^-3
  Small intestine Ratio (x 10^-3) (deacetylvinorelbine /vinorelbine): 630 ± 46 x 10^-3
  Small intestine contents Ratio (x 10^-3) (deacetylvinorelbine /vinorelbine): 1000 ± 270 x 10^-3
  liver deacetylvinorelbine-to-vinorelbine ratio: 2.5 ± 1.3
  small intestine conversion ratio (deacetylvinorelbine-to-vinorelbine): 0.63 ± 0.05
[2]; male Ces2^–/– mice
  AUC0-4h: 10.1 ± 2.3 ng·h/mL
  AUC0-4h ratio (× 10^−3) (deacetylvinorelbine/vinorelbine): 1.7 ± 0.2 × 10^−3
  Cmax: 5.9 ± 1.4 ng/mL
  Tmax: 0.13 ± 0.00 h
[2]; male Ces2^–/–A mice
  plasma AUC0-4h, fold decrease vs wild-type: 55.5 fold
  AUC0-4h: 12.0 ± 3.8 ng·h/mL
  AUC0-4h ratio (× 10^−3) (deacetylvinorelbine/vinorelbine): 2.2 ± 0.5 × 10^−3
  Cmax: 7.6 ± 2.7 ng/mL
  Tmax: 0.25 ± 0.19 h
[2]; male Ces2^–/–V mice
  plasma AUC0-4h, fold decrease vs wild-type: 41.1 fold
  AUC0-4h: 16.2 ± 8.4 ng·h/mL
  AUC0-4h ratio (× 10^−3) (deacetylvinorelbine/vinorelbine): 1.7 ± 0.2 × 10^−3
  Cmax: 8.2 ± 3.5 ng/mL
  Tmax: 0.17 ± 0.07 h
[2]; male wild-type mice
  AUC0-4h: 666 ± 138 ng·h/mL
  AUC0-4h ratio (× 10^−3) (deacetylvinorelbine/vinorelbine): 110 ± 60 × 10^−3
  Cmax: 346 ± 104 ng/mL
  Tmax: 0.46 ± 0.76 h
[3]; male Ces2^–/– mice
  AUC0-4h: 1.0 ± 0.4 ng·h/mL
  AUC0-4h ratio (× 10^−3) (deacetylvinorelbine/vinorelbine): 2.0 ± 0.4 × 10^−3
  Cmax: 0.42 ± 0.15 ng/mL
  Tmax: 3.7 ± 0.8 h
[3]; male Ces2^–/–A mice
  AUC0-4h: 3.7 ± 2.2 ng·h/mL
  AUC0-4h ratio (× 10^−3) (deacetylvinorelbine/vinorelbine): 6.3 ± 7.8 × 10^−3
  Cmax: 1.5 ± 1.1 ng/mL
  Tmax: 2.6 ± 1.0 h
[3]; male Ces2^–/–V mice
  AUC0-4h: 3.3 ± 2.3 ng·h/mL
  AUC0-4h ratio (× 10^−3) (deacetylvinorelbine/vinorelbine): 5.3 ± 1.9 × 10^−3
  Cmax: 1.4 ± 1.2 ng/mL
  Tmax: 2.7 ± 1.0 h
[3]; male mice
  plasma AUC0-4h, fold increase in Ces2^–/–A compared with Ces2^–/– mice: 3.7 fold
  plasma AUC0-4h, fold increase in Ces2^–/–V compared with Ces2^–/– mice: 3.3 fold
[3]; male wild-type mice
  AUC0-4h: 238 ± 112 ng·h/mL
  AUC0-4h ratio (× 10^−3) (deacetylvinorelbine/vinorelbine): 640 ± 170 × 10^−3
  Cmax: 91 ± 44 ng/mL
  Tmax: 1.7 ± 0.7 h
[4]; male Ces2^–/– mice
  CSI (small intestine tissue concentration): 625 ± 219 ng/g
  CSIC (small intestine contents concentration): 1091 ± 405 ng/g
  Ccolon (colon concentration): 5.0 ± 2.1 ng/g
  Cliver (liver concentration): 82 ± 29 ng/g
  Colon Ratio (x 10^-3) (deacetylvinorelbine /vinorelbine): 8.4 ± 1.5 x 10^-3
  Liver Ratio (x 10^-3) (deacetylvinorelbine /vinorelbine): 15 ± 7.5 x 10^-3
  Small intestine Ratio (x 10^-3) (deacetylvinorelbine /vinorelbine): 34 ± 10.0 x 10^-3
  Small intestine contents Ratio (x 10^-3) (deacetylvinorelbine /vinorelbine): 6.7 ± 1.4 x 10^-3
  liver deacetylvinorelbine-to-vinorelbine ratio, fold decrease vs wild-type: 333 fold
  small intestine tissue deacetylvinorelbine-to-vinorelbine ratio: 0.034 ± 0.010
[4]; male Ces2^–/–A mice
  CSI (small intestine tissue concentration): 748 ± 225 ng/g
  CSIC (small intestine contents concentration): 1120 ± 623 ng/g
  Ccolon (colon concentration): 6.0 ± 2.6 ng/g
  Cliver (liver concentration): 162 ± 52 ng/g
  Colon Ratio (x 10^-3) (deacetylvinorelbine /vinorelbine): 7.8 ± 2.6 x 10^-3
  Liver Ratio (x 10^-3) (deacetylvinorelbine /vinorelbine): 19 ± 1.7 x 10^-3
  Small intestine Ratio (x 10^-3) (deacetylvinorelbine /vinorelbine): 39 ± 8.0 x 10^-3
  Small intestine contents Ratio (x 10^-3) (deacetylvinorelbine /vinorelbine): 5.9 ± 1.6 x 10^-3
  liver deacetylvinorelbine-to-vinorelbine ratio, fold decrease vs wild-type: 263 fold
  small intestine tissue deacetylvinorelbine-to-vinorelbine ratio: 0.039 ± 0.008
[4]; male Ces2^–/–V mice
  CSI (small intestine tissue concentration): 808 ± 578 ng/g
  CSIC (small intestine contents concentration): 957 ± 441 ng/g
  Ccolon (colon concentration): 8.1 ± 4.8 ng/g
  Cliver (liver concentration): 178 ± 110 ng/g
  Colon Ratio (x 10^-3) (deacetylvinorelbine /vinorelbine): 13 ± 3.7 x 10^-3
  Liver Ratio (x 10^-3) (deacetylvinorelbine /vinorelbine): 21 ± 7.8 x 10^-3
  Small intestine Ratio (x 10^-3) (deacetylvinorelbine /vinorelbine): 49 ± 15 x 10^-3
  Small intestine contents Ratio (x 10^-3) (deacetylvinorelbine /vinorelbine): 8.4 ± 3.4 x 10^-3
  liver deacetylvinorelbine-to-vinorelbine ratio, fold decrease vs wild-type: 238 fold
  small intestine tissue deacetylvinorelbine-to-vinorelbine ratio: 0.049 ± 0.015
[4]; male wild-type mice
  CSI (small intestine tissue concentration): 9590 ± 4337 ng/g
  CSIC (small intestine contents concentration): 15491 ± 4320 ng/g
  Ccolon (colon concentration): 369 ± 240 ng/g
  Cliver (liver concentration): 7589 ± 2725 ng/g
  Colon Ratio (x 10^-3) (deacetylvinorelbine /vinorelbine): 1000 ± 390 x 10^-3
  Liver Ratio (x 10^-3) (deacetylvinorelbine /vinorelbine): 5000 ± 1000 x 10^-3
  Small intestine Ratio (x 10^-3) (deacetylvinorelbine /vinorelbine): 880 ± 220 x 10^-3
  Small intestine contents Ratio (x 10^-3) (deacetylvinorelbine /vinorelbine): 220 ± 73 x 10^-3
  liver deacetylvinorelbine-to-vinorelbine ratio: 5.0 ± 1.0
  small intestine tissue deacetylvinorelbine-to-vinorelbine ratio: 0.88 ± 0.22
[5]
  plasma Cmax: 9.1 ± 3.3 ng/mL
